Experimental data taken from publication PMC12281475, “Mediator Kinase Inhibitor Selectivity and Activity in Colorectal Cancer” (ACS Chemical Biology, 2025).

Test system: COLO205 cells
Test: Phospho-proteome profiling (CDK-motif antibody enrichment, LC-MS/MS)
Type: cell-based, human
Details: 6 H
Excerpt: We phospho-proteome profiled COLO205 cells to identify Mediator kinase substrates following chemical inhibition of Mediator kinase activity. Given the confirmed CDK8/19 selectivity of our compounds in binding and enzymatic activity assays, we employed a pool of antibodies selective for the proline-rich motifs phosphorylated by the CDK family to enrich potential CDK8/19 substrates for LC-MS/MS analysis.
Adherent COLO205 cells were lysed with a urea buffer, lysates were reduced with DTT, alkylated with iodoacetimide and digested with trypsin-tosylphenylalanyl chloromethyl ketone. Digested peptides were immunoprecipitated using a pool of motif antibodies from Cell Signaling Technologies (US) comprising: phospho-MAPK substrate (PXS*P or S*PXR/K, #2325, RRID:AB_331820), phospho-CDKs substrate ((K/H)-S*P, #2324; RRID:AB_2244779), phospho-PLK binding motif (ST*P, #5243; RRID:AB_10891778) and phospho-tPE motif (T*PE, #3004; RRID:AB_10890649)-of phospho-MAPK (2325), phospho-CDK (2324), phospho-PLK (5243) and phospho-tPE (C3004) motif-recognizing antibodies immobilized onto protein A/G beads. Immunoprecipitated peptides were analyzed using an LTQ-Orbitrap-Velos. Sequences were assigned to the MS/MS spectra and evaluated using SEQUEST 3G and SORCERER 2 (Sage-N Research v4.0, Milpitas). Quantitative data was evaluated and clustered in Spotfire Decision Site (www.spotfire.tibco.com) and normalized using quartile normalization. Functional annotation and pathway analysis used DAVID (https://david.ncifcrf.gov/). […]
Phospho-proteome analyses
Adherent COLO205 cells were washed with PBS and cells lysed using urea lysis buffer (9 M Urea, 20 mM HEPES, pH 8.0, 1 mM beta-glycerophosphate, 1 mM sodium vanadate, 2.5 mM sodium pyrophosphate) and stored at -80 °C prior to analysis. The supernatants were reduced with 100 mM DTT for 30 minutes at 55 °C, followed by alkylation with 50 mM iodoacetimide for 15 minutes at ambient temperature in the dark.
The samples were diluted in 20 mM HEPES, pH 8.0 and digested overnight with 10 ug/mL trypsin-tosylphenylalanyl chloromethyl ketone in 1 mM HCl. Digested peptides were acidified with 1% formic acid and then desalted over 360-mg SEP PAK C18 columns (Waters, UK). Peptides were eluted with 40% acetonitrile in 0.125% formic acid, dried under a vacuum and the lyophilised peptides used for immunoprecipitation.
A pool of motif antibodies from Cell Signaling Technologies (US) comprising: phospho-MAPK substrate (PXS*P or S*PXR/K, #2325, RRID:AB_331820), phospho-CDKs substrate ((K/H)S*P, #2324; RRID:AB_2244779), phospho-PLK binding motif (ST*P, […]
RRID:AB_10890649), were immobilised onto protein A/G beads overnight at 4 °C. The lyophilised peptides were resuspended in MOPS buffer (50 mM MOPS, pH 7.2, 10 mM KH2PO4, 50 mM NaCl) and centrifuged for 5 mins at 13,500 rpm in an Eppendorf benchtop microcentrifuge. The supernatants were incubated with the motif-bound beads for 2.5 hours at 4 °C . The beads were harvested by centrifugation at 4000 rpm in an Eppendorf benchtop microcentrifuge for 5 mins, washed with MOPS buffer twice and washed again 5 times with deionised water. The peptides were eluted off the beads using 0.125% formic acid, were desalted and dried under a vacuum. The lyophilised immunoprecipitated peptides were resuspended in 0.125% formic acid and separated on a capillary column packed with Magic C18 AQ reversed-phase resin.
Peptides were eluted using a 72-minute linear gradient of acetonitrile in 0.125% formic acid delivered at 280nL/min. Samples were analysed using an LTQ-Orbitrap-Velos.
MS Parameter Settings were: MS Run Time 96 min, MS1 Scan Range (300.0 – 1500.00), Top 20 MS/MS (Min Signal 500, Isolation Width 2.0, Normalized Coll.
Charge State Rejection Enabled, Charge State 1+ Rejected, Dynamic Exclusion Enabled, Repeat Count 1, Repeat Duration 35.0, Exclusion List Size 500, Exclusion Duration 40.0, Exclusion Mass Width Relative to Mass, Exclusion Mass Width 10ppm). […]

[1] = MCM4 peptide 69 - fsSppqmhssaipldfdvSspltygtpssr - 98
[2] = MCM4 peptide 86 - vsSpltygtpssr - 98
[3] = MDC1 peptide 1645 - SSvkTpkpvepaaSdlepftptdqsvTpeaiaqggqsk - 1682
[4] = MDC1 peptide 1649 - tpkpvepaasdlepfTptdqsvTpeaiaqggqsk - 1682
[5] = MED13 peptide 551 - TpStpqsqhfyqmpTpdplvpskpmedr - 578
[6] = MED13 peptide 551 - tpstpqSqhfyqmpTpdplvpskpmedr - 578
[7] = MED14 peptide 1106 - agnwpgSpqvsgpSpaar - 1123
[8] = MED26 peptide 295 - gSvpSpSprpqaldatqvpSplplaqpsTppvr - 328
[9] = MED26 peptide 295 - gsvpSpsprpqaldatqvpSplplaqpStppvrr - 328
[10] = MED26 peptide 295 - gsvpspsprpqaldatqvpSplplaqpStppvrr -328
[11] = MED26 peptide 295 - gsvpspsprpqaldatqvpSplplaqpsTppvr - 328
[12] = MLLT6 peptide 446 - palsatpvpadeTpetglkek - 466
[13] = NDRG3 peptide 327 - srthstSSSlgsgeSpfsr - 345
[14] = NEDD4L peptide 549 - avkdTlSnpqSpqpSpYnSpkpqhk - 593
[15] = NOP2 peptide 173 - eaaagiqwSeeeTedeeeekevTpesgppk - 202
[16] = NOSIP peptide 158 - vlpsfwipslTpeak - 172
[17] = NRIP1 peptide 537 - tsviespstnrtTpvSTpplltssk - 561
[18] = PBK peptide 18 - ksvlcstpTinipaSpfmqk - 37
[19] = PBK peptide 19 - svlcStptinipaSpfmqk - 37
[20] = PBK peptide 19 - svlcsTpTinipaspfmqk - 37
[21] = PDE12 peptide 200 - eakpgaaepevgvpsslspSSpSsswtetdveer - 233
[22] = PLEC peptide 4274/4384 - SSsvgsSssypiSpavsr - 4291/4401
[23] = PLEKHA6 peptide 453 - shsvprspSqgsysr - 467
[24] = PPP1R18 peptide 192 - wrlSpgeTper - 202
[25] = PRC1 peptide 487/447 - klntttmsnatanssirpifggtvyhSpvsr - 517/477
[26] = RACGAP1 peptide 572 - vsllgpvTTpehqllkTpSSSSlsqr - 597
[27] = RB1 peptide 788 - spykfpsSplripggniYisplkSpykiseglptptk - 824
[28] = RB1 peptide 792 - fpSSplripggniyiSplkSpYkiseglptpTk - 824
[29] = SEMA6A peptide 745 - adqhhldltalpTpestptlqqk - 767
[30] = SH3RF1 peptide 682 - ivtvlpglpTSpdsassacgnssatkpdkdsk - 713
[31] = SPEN peptide 188 - SrSpnrfdahdpr - 200
[32] = STAT1 peptide 716 - lqttdnllpmsSpeefdevsr - 736
[33] = TACC2 peptide 8/2304 - mkkTpekldntpaSpprSpaepndipiak - 36/2332
[34] = TANC2 peptide 1556 - sqSgspvryqqetsvsqlpgrpksplsSk - 1583
[35] = TASOR peptide 969 - qrSSdYqfpSSpftdtlk - 986
[36] = TASOR peptide 971- ssdyqfpSspftdtlk - 986
[37] = TASOR peptide 971 - ssdyqfpsSpftdtlk - 986
[38] = TBC1D10B peptide 686 - asagpapgpvvtaeglhpslpSptgnsTplgssk - 718
[39] = TBC1D23 peptide 505- visfientsTpvdr - 518
[40] = TFEB peptide 406 - edegppgypeplapghgSpfpslsk - 430
[41] = TGS1 peptide 290 - vdlvsfpsSpimvdndssgtsdkdhseildgisnik - 325
[42] = TLE3 peptide 282 - daptspasvassssTpssk - 300
[43] = TMPO peptide 151 - eqgteSrssTplptisssaentr - 173
[44] = TNRC18 peptide 1230 - vdSpgrTepcTaaldlgvqlTpeTlveak -1258
[45] = TUT1 peptide 273 - apespSldsalaSpldpqa - 293l
[46] = UBR5 peptide 634 - rsTpapkeeekvneeqwslr -653
[47] = WAC peptide 455 - iStpqtntvpikplisTppvsSqpk - 479
[48] = ZC3H13 peptide 1206 - lrSpSndsahr - 1216
[49] = ZMYM4 peptide 1085 - dqgstysgdleseavStphsweeelnhyalk -1115
[50] = ZMYND8 peptide 278/423 - rislsdmprSpmstnssvhtgsdveqdaekk - 307/452
[51] = ZNF687 peptide 123 - mqngfgSpepslpgtphSpappSggtwk - 150

Cn1cc(-c2ccc(-c3cncc(Cl)c3N3CCC4(CCNC4=O)CC3)cc2)cn1 [CCT251545]
MEAN MS SIGNAL CMPD 1 6 H (MCM4 peptide 69 - fSsppqmhssaipldfdvSsplTygtpssr - 98): 71644 | CMPD 1/DMSO [1]: 0.313 | MEAN MS SIGNAL CMPD 1 6 H [1]: 16633 | CMPD 1/DMSO [2]: 0.545 | MEAN MS SIGNAL CMPD 1 6 H [2]: 23881 | CMPD 1/DMSO [3]: 0.574 | MEAN MS SIGNAL CMPD 1 6 H [3]: 46837 | CMPD 1/DMSO [4]: 0.539 | MEAN MS SIGNAL CMPD 1 6 H [4]: 44678 | CMPD 1/DMSO [5]: 0.359 | MEAN MS SIGNAL CMPD 1 6 H [5]: 9156 | CMPD 1/DMSO [6]: 0.429 | MEAN MS SIGNAL CMPD 1 6 H [6]: 13284 | CMPD 1/DMSO [7]: 0.142 | MEAN MS SIGNAL CMPD 1 6 H [7]: 17584 | CMPD 1/DMSO [8]: 0.215 | MEAN MS SIGNAL CMPD 1 6 H [8]: 56284 | CMPD 1/DMSO [9]: 0.344 | MEAN MS SIGNAL CMPD 1 6 H [9]: 14569 | CMPD 1/DMSO [10]: 0.404 | MEAN MS SIGNAL CMPD 1 6 H [10]: 11273 | CMPD 1/DMSO [11]: 0.324 | MEAN MS SIGNAL CMPD 1 6 H [11]: 51395 | CMPD 1/DMSO [12]: 0.499 | MEAN MS SIGNAL CMPD 1 6 H [12]: 13974 | CMPD 1/DMSO [13]: 0.635 | MEAN MS SIGNAL CMPD 1 6 H [13]: 12713 | CMPD 1/DMSO [14]: 2.036 | MEAN MS SIGNAL CMPD 1 6 H [14]: 126084 | CMPD 1/DMSO [15]: 0.618 | MEAN MS SIGNAL CMPD 1 6 H [15]: 97741 | CMPD 1/DMSO [16]: 0.562 | MEAN MS SIGNAL CMPD 1 6 H [16]: 425932 | CMPD 1/DMSO [17]: 1.857 | MEAN MS SIGNAL CMPD 1 6 H [17]: 157739 | CMPD 1/DMSO [18]: 0.492 | MEAN MS SIGNAL CMPD 1 6 H [18]: 411168 | CMPD 1/DMSO [19]: 0.553 | MEAN MS SIGNAL CMPD 1 6 H [19]: 167495 | CMPD 1/DMSO [20]: 0.535 | MEAN MS SIGNAL CMPD 1 6 H [20]: 63854 | CMPD 1/DMSO [21]: 0.255 | MEAN MS SIGNAL CMPD 1 6 H [21]: 32966 | CMPD 1/DMSO [22]: 0.605 | MEAN MS SIGNAL CMPD 1 6 H [22]: 787072 | CMPD 1/DMSO [23]: 1.818 | MEAN MS SIGNAL CMPD 1 6 H [23]: 361701 | CMPD 1/DMSO [24]: 0.562 | MEAN MS SIGNAL CMPD 1 6 H [24]: 109529 | CMPD 1/DMSO [25]: 0.592 | MEAN MS SIGNAL CMPD 1 6 H [25]: 508312 | CMPD 1/DMSO [26]: 0.557 | MEAN MS SIGNAL CMPD 1 6 H [26]: 38518 | CMPD 1/DMSO [27]: 1.786 | MEAN MS SIGNAL CMPD 1 6 H [27]: 21423 | CMPD 1/DMSO [28]: 1.780 | MEAN MS SIGNAL CMPD 1 6 H [28]: 52675 | CMPD 1/DMSO [29]: 2.360 | MEAN MS SIGNAL CMPD 1 6 H [29]: 62365 | CMPD 1/DMSO [30]: 0.610 | MEAN MS SIGNAL CMPD 1 6 H [30]: 121720 | CMPD 1/DMSO [31]: 2.092 | MEAN MS SIGNAL CMPD 1 6 H [31]: 88908 | CMPD 1/DMSO [32]: 0.357 | MEAN MS SIGNAL CMPD 1 6 H [32]: 223699 | CMPD 1/DMSO [33]: 0.521 | MEAN MS SIGNAL CMPD 1 6 H [33]: 16068 | CMPD 1/DMSO [34]: 3.615 | MEAN MS SIGNAL CMPD 1 6 H [34]: 175022 | CMPD 1/DMSO [35]: 0.437 | MEAN MS SIGNAL CMPD 1 6 H [35]: 47745 | CMPD 1/DMSO [36]: 0.316 | MEAN MS SIGNAL CMPD 1 6 H [36]: 116521 | CMPD 1/DMSO [37]: 0.406 | MEAN MS SIGNAL CMPD 1 6 H [37]: 489288 | CMPD 1/DMSO [38]: 0.515 | MEAN MS SIGNAL CMPD 1 6 H [38]: 63051 | CMPD 1/DMSO [39]: 0.544 | MEAN MS SIGNAL CMPD 1 6 H [39]: 230940 | CMPD 1/DMSO [40]: 0.596 | MEAN MS SIGNAL CMPD 1 6 H [40]: 1352019 | CMPD 1/DMSO [41]: 0.563 | MEAN MS SIGNAL CMPD 1 6 H [41]: 156101 | CMPD 1/DMSO [42]: 2.152 | MEAN MS SIGNAL CMPD 1 6 H [42]: 35775 | CMPD 1/DMSO [43]: 2.220 | MEAN MS SIGNAL CMPD 1 6 H [43]: 19216 | CMPD 1/DMSO [44]: 0.311 | MEAN MS SIGNAL CMPD 1 6 H [44]: 69822 | CMPD 1/DMSO [45]: 2.097 | MEAN MS SIGNAL CMPD 1 6 H [45]: 41046 | CMPD 1/DMSO [46]: 0.456 | MEAN MS SIGNAL CMPD 1 6 H [46]: 139720 | CMPD 1/DMSO [47]: 0.617 | MEAN MS SIGNAL CMPD 1 6 H [47]: 154581 | CMPD 1/DMSO [48]: 1.804 | MEAN MS SIGNAL CMPD 1 6 H [48]: 405976 | CMPD 1/DMSO [49]: 0.475 | MEAN MS SIGNAL CMPD 1 6 H [49]: 46592 | CMPD 1/DMSO [50]: 0.617 | MEAN MS SIGNAL CMPD 1 6 H [50]: 23551 | CMPD 1/DMSO [51]: 0.458 | MEAN MS SIGNAL CMPD 1 6 H [51]: 22069
